Here are results for 10 substances from patent US20060122148A1, “High affinity receptors for helicobacter pylori and use thereof” (priority 2002, published 2006).

Experiment [1] concerns H. pylori strain CCUG 17874. The experiment can be described thus: Chromatogram binding assay of 35S-labeled H. pylori to gangliosides on thin-layer plates. Details: species or system Helicobacter pylori. To be noted: for Binding to ganglioside (in words): strain CCUG 17874, thin-layer plates, non-binding = no binding at 4 μg; for Amount at which binding was saturated: dilutions of gangliosides on thin-layer plates.

For experiment [2], the system named is H. pylori strain J99. Described as above. Also noted: species or system Helicobacter pylori.
The test system of experiment [3] is H. pylori strain CCGU 17874. Kind of experiment: Overlay of TLC plates with radiolabeled bacteria (S-3-PG derivatives, glycolipids, neoglycolipids). The class given is binding, Helicobacter pylori. Particulars: for Binding of H. pylori on TLC plates (in words): overlay with radiolabeled bacteria.
Experiment [4] has as its system H. pylori strain 032. Kind of experiment: Overlay of TLC plates with radiolabeled bacteria (PGCs). The class given is binding, Helicobacter pylori. To be noted: 032 strain from broth.

For the substance “Galα3(Fucα2)Galβ4GlcNAcβ6(NeuAcα3Galβ4GlcNAcβ3)Galβ4GlcNAcβ3Galβ4Glcβ1Cer [No. 19]”, the “Binding to ganglioside (in words)” value in experiment [1] and in experiment [2] was “recognized” in each case. In addition, the Detection level entry in experiment [1] (thin-layer plates) was “approximately 100 pmole”.
As for “NeuAcα3Galβ3(Fucα4)GlcNAcβ3Galβ4Glcβ1Cer [No. 6]”, the results for the “Binding to ganglioside (in words)” value in experiment [1] and in experiment [2] were “did not recognize” and “occasional binding”, respectively.
On to “NeuAcα3Galβ4(Fucα3)GlcNAcβ3Galβ4(Fucα3)GlcNAcβ3Galβ4Glcβ1Cer [No. 13]”, for which, in experiment [1], the “Amount at which binding was saturated” value is on record as “approximately 100 pmole” and the “Binding to ganglioside (in words)” value was “recognized”.
As to “NeuAcα3Galβ4GlcNAcβ3Galβ4(Fucα3)GlcNAcβ3Galβ4Glcβ1Cer [No. 12]”, the “Binding to ganglioside (in words)” value in experiment [1] is on record as “recognized”.
As to “NeuAcα3Galβ4GlcNAcβ3Galβ4Glc-HDA (or -branched lipid)”, the “Binding of H. pylori on TLC plates (in words)” value (from here on “Binding of H. pylori”) in experiment [3] was “active”.
Turning to “NeuAcα3Galβ4GlcNAcβ3Galβ4GlcNAcβ3Galβ4GlcNAcβ3Galβ4Glcβ1Cer [No. 10]”, in experiment [1], the “Binding to ganglioside (in words)” value was “recognized”.
On to “NeuAcα3Galβ4GlcNAcβ3Galβ4GlcNAcβ3Galβ4Glcβ1Cer [No. 8]”, for which, in experiment [1], the “Amount at which binding was saturated” value is listed as “approximately 100 pmole” and the “Binding to ganglioside (in words)” value is on record as “recognized”. Moreover, the Relative binding affinity entry in experiment [1] (strain CCUG 17874, serial dilutions 1-100 pmole on thin-layer plates, densitometry) is recorded as “comparable to the binding of cholera toxin B-subunits to the GM1 ganglioside”. For the same substance, the “Binding to ganglioside (in words)” value in experiment [2] is recorded as “recognized”. In addition, the “Binding of H. pylori” value in experiment [3] is recorded as “stronger than binding to sialoneotetraosylceramide”.
On to “NeuAcα3Galβ4GlcNAcβ3Galβ4Glcβ1Cer [No. 2]”, for which, in experiment [3] (some H. pylori batches), the Sensitivity of detection is on record as 0.3-0.4 pmol/mm^2. In addition, the “Binding of H. pylori” value in experiment [4] is listed as “do not bind”.
Consider “NeuAcα3Galβ4GlcNAcβ6(NeuAcα3Galβ4GlcNAcβ3)Galβ4GlcNAcβ3Galβ4Glcβ1Cer [No. 16]”, for which the “Binding to ganglioside (in words)” value in experiment [1] and in experiment [2] was “recognized” each time.
For the substance NeuAcα3Galβ4Glcβ1Cer [No. 1], the “Binding to ganglioside (in words)” value in experiment [1] was “inactive”.
